Key:
[1] = Antiproliferative activity against human NCI-H820 cells assessed as inhibition of cell growth incubated for 72 hrs by MTT assay; type: functional, cell-based; settings: nci-h820
Huh-7 = assay: Antiproliferative activity against human Huh-7 cells assessed as inhibition of cell growth incubated for 72 hrs by MTT assay; type: functional, cell-based; settings: huh-7
PANC-1 = assay: Antiproliferative activity against human PANC-1 cells assessed as inhibition of cell growth incubated for 72 hrs by MTT assay; type: functional, cell-based; settings: panc-1
[2] = Prodrug conversion of the compound in HEPES buffer assessed as (1aR,7aS,10aS,10bS)-1a-methyl-8-methylene-5-(2,2,2-trifluoroethyl)-2,3,6,7,7a,8,10a,10b-octahydrooxireno[2',3':9,10]cyclodeca[1,2-b]furan-9(1aH)-one formation by measuring half life at pH 7.4 by RP-HPLC analysis; type: ADME
[3] = Half life in male BALB/c mouse at 10 mg/kg, iv measured upto 24 hrs by LC-MS/MS analysis; type: ADME, organism-based; settings: in vivo
[4] = Half life in male BALB/c mouse at 50 mg/kg, po measured upto 24 hrs by LC-MS/MS analysis; type: ADME, organism-based; settings: in vivo
[5] = Tmax in male BALB/c mouse at 50 mg/kg, po measured upto 24 hrs by LC-MS/MS analysis; type: ADME, organism-based; settings: in vivo
[6] = Cmax in male BALB/c mouse at 50 mg/kg, po measured upto 24 hrs by LC-MS/MS analysis; type: ADME, organism-based; settings: in vivo
[7] = Initial plasma concentration in male BALB/c mouse at 10 mg/kg, iv measured upto 24 hrs by LC-MS/MS analysis; type: ADME, organism-based
[8] = AUC (0 to t) in male BALB/c mouse at 10 mg/kg, iv measured upto 24 hrs by LC-MS/MS analysis; type: ADME, organism-based; settings: in vivo
[9] = AUC (0 to t) in male BALB/c mouse at 50 mg/kg, po measured upto 24 hrs by LC-MS/MS analysis; type: ADME, organism-based; settings: in vivo
[10] = AUC (0 to infinity) in male BALB/c mouse at 10 mg/kg, iv measured upto 24 hrs by LC-MS/MS analysis; type: ADME, organism-based; settings: in vivo
[11] = AUC (0 to infinity) in male BALB/c mouse at 50 mg/kg, po measured upto 24 hrs by LC-MS/MS analysis; type: ADME, organism-based; settings: in vivo
[12] = Volume of distribution in male BALB/c mouse at 10 mg/kg, iv measured upto 24 hrs by LC-MS/MS analysis; type: ADME, organism-based; settings: in vivo
[13] = Clearance in male BALB/c mouse at 10 mg/kg, iv measured upto 24 hrs by LC-MS/MS analysis; type: ADME, organism-based; settings: in vivo
[14] = MRT (0 to t) in male BALB/c mouse at 10 mg/kg, iv measured upto 24 hrs by LC-MS/MS analysis; type: ADME, organism-based; settings: in vivo
[15] = MRT (0 to t) in male BALB/c mouse at 50 mg/kg, po measured upto 24 hrs by LC-MS/MS analysis; type: ADME, organism-based; settings: in vivo
[16] = Oral bioavailability in male BALB/c mouse at 50 mg/kg measured upto 24 hrs by LC-MS/MS analysis; type: ADME, organism-based; settings: in vivo
[17] = Acute toxicity in BALB/c mouse assessed as change in body weight at 100 mg/kg, po; type: organism-based; settings: in vivo
[18] = Acute toxicity in BALB/c mouse assessed as liver damage at 100 mg/kg, po; type: organism-based; settings: in vivo
[19] = Acute toxicity in BALB/c mouse assessed as spleen damage at 100 mg/kg, po; type: organism-based; settings: in vivo
[20] = Acute toxicity in BALB/c mouse assessed as lung damage at 100 mg/kg, po; type: organism-based; settings: in vivo
[21] = Acute toxicity in BALB/c mouse assessed as kidney damage at 100 mg/kg, po; type: organism-based; settings: in vivo
[22] = Acute toxicity in BALB/c mouse assessed as brain damage at 100 mg/kg, po; type: organism-based; settings: in vivo
[23] = Acute toxicity in BALB/c mouse assessed as heart damage at 100 mg/kg, po; type: organism-based; settings: in vivo

`CN(C)CC1C(=O)O[C@H]2[C@H]1CC/C(CC(F)(F)F)=C\CC[C@@]1(C)O[C@@H]21.O=C(O)/C=C/C(=O)O` (stereo not given in full) gave an IC50 [1] of 4.18 µM, an IC50 (Huh-7) of 3.41 µM and an IC50 (PANC-1) of 4.16 µM. It also gave a t1/2 [2] of 76.8 min, a half-life [3] of 33.2 min and a half-life [4] of 47.9 min. It also gave a Tmax [5] of 15 min, a Cmax [6] of 1080 ng/mL and a C0 at 24 h [7] of 1450 ng/mL. It also gave an AUC(0-t) at 24 h [8] of 438 ng·h/mL, an AUC(0-t) at 24 h [9] of 991 ng·h/mL and an AUC(0-inf) [10] of 444 ng·h/mL. The AUC(0-inf) [11] was 991 ng·h/mL, the Vd [12] was 12.1 L/kg and the clearance [13] was 253 mL/min/kg. It also gave an MRT last at 24 h [14] of 24.1 min, an MRT last at 24 h [15] of 49.7 min and a bioavailability [16] of 45.2%. For the same molecule, the Activity [17] was “Non-toxic”, the Activity [18] was “Non-toxic” and the Activity [19] was “Non-toxic”. For the same molecule, the Activity [20] was “Non-toxic”, the Activity [21] was “Non-toxic” and the Activity [22] was “Non-toxic”. For the same molecule, the Activity [23] was “Non-toxic”.

Source: ChEMBL document CHEMBL6103569, “Discovery of novel fluorine-containing parthenolide analogues as potential antitumor agents” (Eur J Med Chem, 2025)
